Starred links: 1 amine or outer side, 2 acyl side, 3 side chain; linkers in the order of their positions; H or OH if unused. Non-standard residues stand in square brackets, D forms with d. Residues, ends and D or L forms follow the SMILES beside them. *: point of attachment. X2 = CCCCCCCCCCCC(=O)NCCOCCOCCOCCOCCOCCn1cc(CC(=O)*)nn1; Ala(1-Me-3-pyridinium) = C[n+]1cccc(C[C@H](N)C(=O)O)c1; X11 = O=C(c1nnc([C@H](Cc2ccccc2)N[*:1])[nH]1)[*:2]; dPhe(2,4-Cl2) = N[C@H](Cc1ccc(Cl)cc1Cl)C(=O)O; Ala(4-thiazolyl) = N[C@@H](Cc1cscn1)C(=O)O; Phe(4-Cl) = N[C@@H](Cc1ccc(Cl)cc1)C(=O)O; Ala(2-furyl) = N[C@@H](Cc1ccco1)C(=O)O; Phe(4-F) = N[C@@H](Cc1ccc(F)cc1)C(=O)O; Pro(4,4-F2) = O=C(O)[C@@H]1CC(F)(F)CN1; dAla(2-furyl) = N[C@H](Cc1ccco1)C(=O)O; 2Nal = N[C@@H](Cc1ccc2ccccc2c1)C(=O)O; X9 = CC(C)CC(C(=O)[*:2])C(=S)NCN[*:1]; Arg(Me) = CNC(=N)NCCC[C@H](N)C(=O)O; Ala(cPr) = N[C@@H](CC1CC1)C(=O)O; Hyp = O=C(O)[C@@H]1C[C@@H](O)CN1; 2Pal = N[C@@H](Cc1ccccn1)C(=O)O; 3Pal = N[C@@H](Cc1cccnc1)C(=O)O; Gly(cPr) = N[C@H](C(=O)O)C1CC1; NMeL = CN[C@@H](CC(C)C)C(=O)O; Pip = O=C(O)[C@@H]1CCCCN1; Ac6c = NC1(C(=O)O)CCCCC1; Aze = O=C(O)[C@@H]1CCN1; Thp = NC1(C(=O)O)CCOCC1; azaGly = NNC(=O)O; βAla = NCCC(=O)O
These compounds were tested against T1, human kiss1 receptor (GPR54) (Homo sapiens, UniProt Q969F8) (assay: Kiss1 receptor (GPR54) binding activity of agonists, FRET detection in NFAT-bla CHO-K1 cells). Conditions: GPR54; measured according to the method of effect Embodiment 1; preliminary data; read-out: Preliminary measurement data (GPR54) EC50.
T1 construct: host or cells: NFAT-bla CHO-K1 cells (Chinese hamster ovary), purchased recombinant cell line
T1 sequence (Q969F8 whole entry): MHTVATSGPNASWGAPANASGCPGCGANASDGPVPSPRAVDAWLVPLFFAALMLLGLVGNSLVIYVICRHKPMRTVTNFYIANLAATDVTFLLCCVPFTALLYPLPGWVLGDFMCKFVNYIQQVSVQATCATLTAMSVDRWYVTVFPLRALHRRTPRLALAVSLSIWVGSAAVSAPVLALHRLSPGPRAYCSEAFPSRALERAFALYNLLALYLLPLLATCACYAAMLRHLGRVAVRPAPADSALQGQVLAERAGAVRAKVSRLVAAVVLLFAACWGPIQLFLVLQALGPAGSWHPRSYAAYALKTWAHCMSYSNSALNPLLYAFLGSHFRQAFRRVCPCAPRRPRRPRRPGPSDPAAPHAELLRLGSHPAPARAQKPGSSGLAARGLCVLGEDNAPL
Format: cell-based
Method: Effect Embodiment 1 Determination of Kiss1 Receptor (GPR54) Binding Activity of Kiss1 Receptor (GPR54) Agonist
The binding activity test of each compound from the above the embodiments with kiss1 receptor (GPR54) was performed by fluorescence energy resonance transfer (FRET) detection technology to detect EC50 values of polypeptides and peptide analogs. The cells used in this experiment were NFAT-bla CHO-K1 cells (k1720, invitrogen, thermosher) that express human kiss1 receptor (GPR54). The specific operations were as follows:
Day 1: Seeding Cells in Plate
1. Microscope (CKX41, OLYMPUS), object lens×4 times, ocular lens×10 times. The cells were ensured in a good condition.
2. Digesting the cells, adding 3 ml of 0.05% pancreatin into a culture dish; cells were placed in a 37° C., 5% CO2 incubator for 2 minutes (Thermo Fisher). After the cells became round under the microscope, 7 ml of culture medium was added. The formula of culture medium was as follows: DMEM 90%, dialzedfbS10, NEAA 0.1 mM, HEPES 25 mM, Penicillin 100 U/ml, Streptomycin 100 μm/ml, pH7.3. After blowing and stirring, it was transferred to 15 mL centrifuge tube (430790, Corning). Centrifuge at 1000 rpm for 5 min (5810R, Eppendorf) and the supernatant was discard.
3. Adding 7 mL of culture medium (DMEM+0.1% BSA), it was pipetting into single cell suspension, after counting with Bio-RAD counter, the cell density was adjusted to 312,500 cells/ml.
4. Cells were inoculated into 384 well plates at 32 μL per well, and the cell number was controlled at 10000 cells/well. 32 μl of culture medium was added into the blank control.
Day 2: Dosing and Data Analysis
1) The compound to be tested was prepared into 50 mM working solution with DMSO.
2) 40 μl of the working solution of the compound to be tested was added into column 2 of row A-H of U-shaped 96-well plate (3797, comings), and 60 μl of DMSO was added into column 3-11. 20 μl of compound solution was sucked from the second column to the third column with a multichannel pipette blowing and stirring evenly; 20 μl of compound solution was absorbed from the third column with a multichannel pipette, then added into the fourth column, blowed and stirred to mix well; the compound was serially diluted 4-fold to a total of 10 concentrations. Column 1 and column 12 of 96-well plates were supplemented with 40 μl DMSO.
2. Intermediate Plate Configuration
1) AU-shaped 96-well plate was used, 199 μL of culture medium (DMEM+0.1% BSA) was added to each well, 1 μL of diluted compound (or DMSO) was sucked from 1000× compound plate and added into the 96-well plate at the corresponding position, blowed and stirred to mix well.
2) Homemade positive compounds and compounds to be tested were added. The cell culture plate was took out from the incubator and cells state was observed under microscope. Diluted compound in the intermediate plate or DMSO was added into the cell, 8 μl per well.
3) Cells were cultured in 37° C. and 5% CO2 for 4 hours.
3. The Substrate was Added to Detect the Binding of the Drug to the Receptor
1) 1 μmol/L CCF-4AM solution and buffer solution B, C, D were equilibrated to room temperature. LiveBLAZER™-FRET B/G Loading Kit (K1095, thermo Fisher) containing CCF-4AM and solution B, solution C, solution D were also available from Invitrogen (K1157, thermo Fisher).
2) 6× loading solution was prepared: 6 μl of CCF-4AM dissolved solution A, 60 μl of solution b, 904 μl of solution c, and 30 μl of solution D were pipetted into EP tube, blowed and stirred to mix well.
3) 8 μl of the above-mentioned liquid was sucked with a multichannel pipette, added into a 96-well plate, and incubated for 2 hours at room temperature.
4) The PerkinElmer detector was used to detect the luminous signals of each hole. FI mode, λex=409 nm, λem1=460 nm, λem2=530 nm.
4. Data Processing Using Graphpad Prism 5 (GraphPad Software. Inc)
Effective rate %=(Signal−Min)/(Max−Min)×100%.

Row | SMILES | EC50
1 | CNC(=N)NCCC[C@H](NC(=O)[C@H](CC(C)C)NC(=O)C1(NC(=O)[C@H](Cc2ccccc2)NC(=O)[C@@H](NC(=O)[C@H](CC(N)=O)NC(=O)[C@@H]2CCCCN2C(=O)[C@H](Cc2ccc(F)cc2)NC(C)=O)[C@@H](C)O)CCCCC1)C(=O)N[C@@H](Cc1c[nH]c2ccccc12)C(N)=O [YA-202, Ac-Phe(4-F)-(S-Pip)-Asn-Thr-Phe-A6c-Leu-Arg(Me)-Trp-NH2] (Ac-[Phe(4-F)][Pip]NTF[Ac6c]L[Arg(Me)]W-NH2) | 9.6 nM
2 | CNC(=N)NCCC[C@H](NC(=O)[C@H](CC(C)C)NC(=O)[C@@H]1CCN1C(=O)[C@H](Cc1ccccc1)NC(=O)[C@H](Cc1ccco1)NC(=O)[C@H](CC(N)=O)NC(=O)[C@@H]1C[C@@H](O)CN1C(=O)[C@@H](Cc1ccc(O)cc1)NC(C)=O)C(=O)N[C@@H](Cc1c[nH]c2ccccc12)C(N)=O [YA-203, Ac-(D-Tyr)-Hyp-Asn-2Fua-Phe-Aze-Leu-Arg(Me)-Trp-NH2] (Ac-[dY][Hyp]N[Ala(2-furyl)]F[Aze]L[Arg(Me)]W-NH2) | 1.19 nM
3 | CNC(=N)NCCC[C@H](NC(=O)[C@H](CC(C)C)NC(=O)NNC(=O)[C@H](Cc1ccccc1)NC(=O)[C@@H](NC(=O)[C@H](CC(N)=O)NC(=O)[C@@H]1C[C@@H](O)CN1C(=O)[C@H](Cc1ccc(Cl)cc1)NC(C)=O)[C@@H](C)O)C(=O)N[C@@H](Cc1c[nH]c2ccccc12)C(N)=O [YA-72, Ac-Phe(4-Cl)-Hyp-Asn-Thr-Phe-azaGly-Leu-Arg(Me)-Trp-NH2] (Ac-[Phe(4-Cl)][Hyp]NTF[azaGly]L[Arg(Me)]W-NH2) | 5.55 nM
4 | CNC(=N)NCCC[C@H](NC(=O)[C@H](CC(C)C)NC(=O)NNC(=O)[C@H](Cc1ccccc1)NC(=O)[C@@H](NC(=O)[C@H](CC(N)=O)NC(=O)[C@@H]1C[C@@H](O)CN1C(=O)[C@H](Cc1ccc[n+](C)c1)NC(C)=O)[C@@H](C)O)C(=O)N[C@@H](Cc1c[nH]c2ccccc12)C(N)=O [YA-239, Ac-[(S)-3-(2-amino-2-carboxyethyl)-1-methylpyridinium]-Hyp-Asn-Thr-Phe-azaGly-Leu-Arg(Me)-Trp-NH2] (Ac-[Ala(1-Me-3-pyridinium)][Hyp]NTF[azaGly]L[Arg(Me)]W-NH2) | 1 nM
5 | CNC(=N)NCCC[C@H](NC(=O)[C@H](CC(C)C)NC(=O)c1nnc([C@H](Cc2ccccc2)NC(=O)[C@@H](NC(=O)[C@H](CC(N)=O)NC(=O)[C@@H]2C[C@@H](O)CN2C(=O)[C@@H](Cc2ccc(O)cc2)NC(C)=O)[C@@H](C)O)[nH]1)C(=O)N[C@@H](Cc1c[nH]c2ccccc12)C(N)=O [YA-209, Ac-(D-Tyr)-Hyp-Asn-Thr-{(S)-5-(1-amino-2-phenylethyl)-4H-1,2,4-triazole-3-carboxylic acid}-Leu-Arg(Me)-Trp-NH2] (Ac-[dY][Hyp]NT[X11]L[Arg(Me)]W-NH2) | 1.4 nM
6 | CNC(=N)NCCC[C@H](NC(=O)[C@H](CC(C)C)N(C)C(=O)CCNC(=O)[C@H](Cc1ccccc1)NC(=O)[C@@H](NC(=O)[C@H](CC(N)=O)NC(=O)[C@@H]1C[C@@H](O)CN1C(=O)[C@@H](Cc1ccc(Cl)cc1Cl)NC(C)=O)[C@@H](C)O)C(=O)N[C@@H](Cc1c[nH]c2ccccc12)C(N)=O [YA-187, Ac-[D-Phe(2,4-DiCl)]-Hyp-Asn-Thr-Phe-BetaAla-NMeLeu-Arg(Me)-Trp-NH2] (Ac-[dPhe(2,4-Cl2)][Hyp]NTF[βAla][NMeL][Arg(Me)]W-NH2) | 1.85 nM
7 | CNC(=N)NCCC[C@H](NC(=O)[C@H](CC(C)C)NC(=O)[C@@H]1CCN1C(=O)[C@H](Cc1ccccc1)NC(=O)[C@H](Cc1ccco1)NC(=O)[C@H](CC(N)=O)NC(=O)[C@@H]1CC(F)(F)CN1C(=O)[C@@H](Cc1ccc(O)cc1)NC(C)=O)C(=O)N[C@@H](Cc1c[nH]c2ccccc12)C(N)=O [YA-205, Ac-(D-Tyr)-DiFluorPro-Asn-2Fua-Phe-Aze-Leu-Arg(Me)-Trp-NH2] (Ac-[dY][Pro(4,4-F2)]N[Ala(2-furyl)]F[Aze]L[Arg(Me)]W-NH2) | 50.3 nM

Second part, the compound after the results:

Row | EC50 | SMILES
8 | 0.86 nM | CNC(=N)NCCC[C@H](NC(=O)[C@H](CC(C)C)NC(=O)NNC(=O)[C@H](Cc1ccccc1)NC(=O)[C@@H](Cc1ccco1)NC(=O)[C@H](CC(N)=O)NC(=O)[C@@H]1C[C@@H](O)CN1C(=O)[C@@H](Cc1ccc(O)cc1)NC(C)=O)C(=O)N[C@@H](Cc1c[nH]c2ccccc12)C(N)=O [YA-166] (Ac-[dY][Hyp]N[dAla(2-furyl)]F[azaGly]L[Arg(Me)]W-NH2)
9 | 0.78 nM | CNC(=N)NCCC[C@H](NC(=O)[C@H](CC(C)C)NC(=O)C1(NC(=O)[C@H](Cc2ccccc2)NC(=O)[C@@H](NC(=O)[C@H](CC(N)=O)NC(=O)[C@@H]2CC(F)(F)CN2C(=O)[C@@H](Cc2ccc(Cl)cc2Cl)NC(C)=O)[C@@H](C)O)CCCCC1)C(=O)N[C@@H](Cc1c[nH]c2ccccc12)C(N)=O [YA-248, Ac-[D-Phe(2,4-diCl)]-Pro(diF)-Asn-Thr-Phe-A6c-Leu-Arg(Me)-Trp-NH2] (Ac-[dPhe(2,4-Cl2)][Pro(4,4-F2)]NTF[Ac6c]L[Arg(Me)]W-NH2)
10 | 0.3 nM | CNC(=N)NCCC[C@H](NC(=O)[C@H](CC(C)C)NC(=O)[C@H](Cc1cscn1)NC(=O)[C@H](Cc1ccccc1)NC(=O)[C@@H](NC(=O)[C@H](CC(N)=O)NC(=O)[C@@H]1C[C@@H](O)CN1C(=O)[C@@H](Cc1ccc(O)cc1)NC(C)=O)[C@@H](C)O)C(=O)N[C@@H](Cc1c[nH]c2ccccc12)C(N)=O [YA-357, Ac-(D-Tyr)-Hyp-Asn-Thr-Phe-Beta-(thiazoly-4-yl)-L-Ala-Leu-Arg(Me)-Trp-NH2] (Ac-[dY][Hyp]NTF[Ala(4-thiazolyl)]L[Arg(Me)]W-NH2)
11 | 0.3 nM | CNC(=N)NCCC[C@H](NC(=O)[C@H](CC(C)C)NC(=O)NNC(=O)[C@H](Cc1ccccc1)NC(=O)[C@@H](NC(=O)[C@H](CC(N)=O)NC(=O)[C@@H]1C[C@@H](O)CN1C(=O)[C@H](Cc1cccnc1)NC(C)=O)[C@@H](C)O)C(=O)N[C@@H](Cc1c[nH]c2ccccc12)C(N)=O [YA-69, Ac-3Pal-Hyp-Asn-Thr-Phe-azaGly-Leu-Arg(Me)-Trp-NH2] (Ac-[3Pal][Hyp]NTF[azaGly]L[Arg(Me)]W-NH2)
12 | 0.26 nM | CNC(=N)NCCC[C@H](NC(=O)[C@H](CC(C)C)NC(=O)C1(NC(=O)[C@H](Cc2ccccc2)NC(=O)[C@@H](NC(=O)[C@H](CC(N)=O)NC(=O)[C@@H]2C[C@@H](O)CN2C(=O)[C@@H](Cc2ccc(O)cc2)NC(C)=O)[C@@H](C)O)CCOCC1)C(=O)N[C@@H](Cc1c[nH]c2ccccc12)C(N)=O [YA-354, Ac-(D-Tyr)-Hyp-Asn-Thr-Phe-morpholino cyclic amino acid-Leu-Arg(Me)-Trp-NH2] (Ac-[dY][Hyp]NTF[Thp]L[Arg(Me)]W-NH2)
13 | 0.18 nM | CNC(=N)NCCC[C@H](NC(=O)[C@H](CC(C)C)NC(=O)NNC(=O)[C@H](Cc1ccccc1)NC(=O)[C@@H](NC(=O)[C@H](CC(N)=O)NC(=O)[C@@H]1C[C@@H](O)CN1C(=O)[C@H](Cc1ccccn1)NC(C)=O)[C@@H](C)O)C(=O)N[C@@H](Cc1c[nH]c2ccccc12)C(N)=O [YA-68, Ac-2Pal-Hyp-Asn-Thr-Phe-azaGly-Leu-Arg(Me)-Trp-NH2] (Ac-[2Pal][Hyp]NTF[azaGly]L[Arg(Me)]W-NH2)
14 | 0.18 nM | CNC(=N)NCCC[C@H](NC(=O)[C@H](CC(C)C)NC(=O)[C@@H]1CCN1C(=O)[C@H](Cc1ccccc1)NC(=O)[C@@H](NC(=O)[C@H](CC(N)=O)NC(=O)[C@@H]1C[C@@H](O)CN1C(=O)[C@@H](Cc1ccc(O)cc1)NC(C)=O)[C@@H](C)O)C(=O)N[C@@H](Cc1c[nH]c2ccccc12)C(N)=O [YA-153, Ac-D-Tyr-Hyp-Asn-Thr-Phe-Aze-Leu-Arg(Me)-Trp-NH2] (Ac-[dY][Hyp]NTF[Aze]L[Arg(Me)]W-NH2)
15 | 0.074 nM | CNC(=N)NCCC[C@H](NC(=O)[C@H](CC(C)C)NC(=O)NNC(=O)[C@H](Cc1ccccc1)NC(=O)[C@@H](NC(=O)[C@H](CC(N)=O)NC(=O)[C@H](CC1CC1)NC(=O)[C@@H](Cc1ccc(O)cc1)NC(C)=O)[C@@H](C)O)C(=O)N[C@@H](Cc1c[nH]c2ccccc12)C(N)=O [YA-383, Ac-(D-Tyr)-Cpa-Asn-Thr-Phe-azaGly-Leu-Arg(Me)-Trp-NH2] (Ac-[dY][Ala(cPr)]NTF[azaGly]L[Arg(Me)]W-NH2)
16 | 0.028 nM | CNC(=N)NCCC[C@H](NC(=O)C(CC(C)C)C(=S)NCNC(=O)[C@H](Cc1ccccc1)NC(=O)[C@@H](NC(=O)[C@H](CC(N)=O)NC(=O)[C@@H]1CC(F)(F)CN1C(=O)[C@@H](Cc1ccc(Cl)cc1Cl)NC(C)=O)[C@@H](C)O)C(=O)N[C@@H](Cc1c[nH]c2ccccc12)C(N)=O (single isomer, unassigned) [YA-255, Ac-[D-Phe(2,4-DiCl)]-DiFluorPro-Asn-Thr-Phe-ψ(NHCS) Gly-Leu-Arg(Me)-Trp-NH2]
17 | 0.019 nM | CCCCCCCCCCCC(=O)NCCOCCOCCOCCOCCOCCn1cc(CC(=O)N[C@H](Cc2ccc(O)cc2)C(=O)N2C[C@H](O)C[C@H]2C(=O)N[C@@H](CC(N)=O)C(=O)N[C@H](C(=O)N[C@@H](Cc2ccccc2)C(=O)NCNC(=S)C(CC(C)C)C(=O)N[C@@H](CCCNC(=N)NC)C(=O)N[C@@H](Cc2c[nH]c3ccccc23)C(N)=O)[C@@H](C)O)nn1 (stereo partly drawn) [YA-348, M10 [Dodecanoyl-PEG5-1,2,3- Triazole cyclic-Acetyl, D-Tyr45, Hyp46, des47, Thr49, Gψ(NHCS)51, Arg(Me)53, Trp54]] (X2-[dY][Hyp]NTF[X9][Arg(Me)]W-NH2)
18 | 0.011 nM | CNC(=N)NCCC[C@H](NC(=O)[C@H](CC(C)C)NC(=O)NNC(=O)[C@H](Cc1ccccc1)NC(=O)[C@@H](NC(=O)[C@H](CC(N)=O)NC(=O)[C@@H]1C[C@@H](O)CN1C(=O)[C@@H](Cc1ccc(O)cc1)NC(C)=O)[C@@H](C)O)C(=O)N[C@@H](Cc1ccc2ccccc2c1)C(N)=O [YA-81, Ac-D-Tyr-Hyp-Asn-Thr-Phe-azaGly-Leu-Arg(Me)-2Nal-NH2] (Ac-[dY][Hyp]NTF[azaGly]L[Arg(Me)][2Nal]-NH2)

Same assay, conditions: human kiss1 receptor (GPR54), NFAT-bla CHO-K1 cells, FRET; preliminary data; method of effect Embodiment 1; read-out: Preliminary measurement data (GPR54) EC50

Row | SMILES | EC50
19 | CNC(=N)NCCC[C@H](NC(=O)[C@H](CC(C)C)NC(=O)[C@@H](NC(=O)[C@H](Cc1ccccc1)NC(=O)[C@@H](NC(=O)[C@H](CC(N)=O)NC(=O)[C@@H]1C[C@@H](O)CN1C(=O)[C@@H](Cc1ccc(O)cc1)NC(C)=O)[C@@H](C)O)C1CC1)C(=O)N[C@@H](Cc1c[nH]c2ccccc12)C(N)=O [YA-396, Ac-(D-Tyr)-Hyp-Asn-Thr-Phe-Cpg-Leu-Leu-Arg(Me)-Trp-NH2] (Ac-[dY][Hyp]NTF[Gly(cPr)]L[Arg(Me)]W-NH2) | 1.19 nM

From patent US11427615B2, “Peptide compound and application thereof, and composition containing peptide compound” (XDCEXPLORER (SHANGHAI) CO., LTD., priority 2017, dated 2022)
